From PubChem BioAssay (NCI)
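All cell lines were grown in 96-well plates and treated with compound for 48 hours. TGI is the concentration that stops growth completely.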

Key:
Assay in all cases: inhibition of tumour cell growth, NCI panel, 48 h
MALME-3M melanoma = system: MALME-3M melanoma
NCI-H460 lung = system: NCI-H460 lung
KM12 colon = system: KM12 colon
SNB-75 CNS = system: SNB-75 CNS
XF 498 CNS = system: XF 498 CNS
SNB-78 CNS = system: SNB-78 CNS
DMS 273 small cell lung = system: DMS 273 small cell lung
SK-MEL-28 melanoma = system: SK-MEL-28 melanoma
LOX IMVI melanoma = system: LOX IMVI melanoma
RPMI-8226 leukemia = system: RPMI-8226 leukemia
SK-MEL-2 melanoma = system: SK-MEL-2 melanoma
SF-295 CNS = system: SF-295 CNS
NCI-H522 lung = system: NCI-H522 lung
SR leukemia = system: SR leukemia
SW-620 colon = system: SW-620 colon
OVCAR-3 ovarian = system: OVCAR-3 ovarian
EKVX NSCLC = system: EKVX NSCLC
OVCAR-8 ovarian = system: OVCAR-8 ovarian
A498 renal = system: A498 renal
TK-10 renal = system: TK-10 renal
UACC-257 melanoma = system: UACC-257 melanoma
SF-268 CNS = system: SF-268 CNS
HCC-2998 colon = system: HCC-2998 colon
A549 NSCLC = system: A549 NSCLC
UO-31 renal = system: UO-31 renal
OVCAR-5 ovarian = system: OVCAR-5 ovarian
CAKI-1 renal = system: CAKI-1 renal
U251 CNS = system: U251 CNS
LXFL 529 NSCLC = system: LXFL 529 NSCLC
HT29 colon = system: HT29 colon
HOP-18 NSCLC = system: HOP-18 NSCLC
K-562 leukemia = system: K-562 leukemia
HOP-62 NSCLC = system: HOP-62 NSCLC
NCI-H226 lung = system: NCI-H226 lung
NCI-H23 lung = system: NCI-H23 lung
DLD-1 colon = system: DLD-1 colon
SNB-19 CNS = system: SNB-19 CNS
HCT-116 colon = system: HCT-116 colon
RXF 393 renal = system: RXF 393 renal
ACHN renal = system: ACHN renal
COLO 205 colon = system: COLO 205 colon
OVCAR-4 ovarian = system: OVCAR-4 ovarian
HCT-15 colon = system: HCT-15 colon
786-0 renal = system: 786-0 renal
KM20L2 colon = system: KM20L2 colon
SF-539 CNS = system: SF-539 CNS
MOLT-4 leukemia = system: MOLT-4 leukemia
UACC-62 melanoma = system: UACC-62 melanoma
SK-MEL-5 melanoma = system: SK-MEL-5 melanoma
M14 melanoma = system: M14 melanoma
DMS 114 small cell lung = system: DMS 114 small cell lung
IGROV1 ovarian = system: IGROV1 ovarian
SN12C renal = system: SN12C renal
HOP-92 NSCLC = system: HOP-92 NSCLC
HL-60(TB) leukemia = system: HL-60(TB) leukemia
CCRF-CEM leukemia = system: CCRF-CEM leukemia
SK-OV-3 ovarian = system: SK-OV-3 ovarian
M19-MEL melanoma = system: M19-MEL melanoma

Measured: TGI

O=C(c1ccccc1)c1ccc2cccc(OC3OC(CO)C(O)C(O)C3O)c2n1 (stereo not given)
82 µM: A498 renal
not listed: HOP-92 NSCLC | HL-60(TB) leukemia | CCRF-CEM leukemia | SK-OV-3 ovarian | M19-MEL melanoma
> 100 µM: all other assays above

CC(=O)Nc1ccc(C2C(C(=O)Nc3ccccc3)=C(C)NC(C)=C2C(=O)Nc2ccccc2)cc1
> 82.5 µM: DMS 114 small cell lung
not listed: SR leukemia
> 100 µM: all other assays above
